Measurements as given in patent publication US20240115549A1, “TREATMENT OF MENTAL DISORDERS” (GH Research Ireland Limited, priority 2022, published 2024).

How the values were obtained:
[1] = tested on: Salmonella typhimurium TA98, TA100, TA1535 and TA1537; experiment: Bacterial mutation test, Salmonella typhimurium; type: cell-based; conditions: up to 5000 μg/plate, with and without S-9
Text: (§1) These conditions included treatments at concentrations up to […] (the maximum recommended concentration according to current regulatory guidelines), in the absence and in the presence of a rat liver metabolic activation system (S-9).

[2] = tested on: Escherichia coli WP2 uvrA pKM101; experiment: Bacterial mutation test, Escherichia coli; type: cell-based; conditions: up to 5000 pg/plate, with and without S-9
Text: as §1

For `COc1ccc2[nH]cc(CCN(C)C)c2c1` [5-MeO-DMT], the Induction of mutation [1] was “did not induce mutation” and the Induction of mutation [2] was “did not induce mutation”.
